Experimental findings from patent publication US7714134B2, “Compounds and use of tetrahydropyridothiophenes” (4SC AG, priority 2004, dated 2010) are described below.

Test [1] concerns RKO (RKOp27) human colon adenocarcinoma cells. Description: Alamar Blue cell viability assay, anti-proliferative/cytotoxic activity, RKO p27 uninduced. To be noted: RKOp27, 72 h, proliferating cells, absence of the inducer Ponasterone A, 72 hours incubation. The format is cell-based. The protocol: The anti-proliferative/cytotoxic activity of the compounds described herein, can be tested on subdlones of RKO (RKOp27) human colon adenocarcinoma cells (Schmidt et al., Oncogene 19, 2423-2429; 2000) using the Alamar Blue cell viability assay (described in O'Brien et al. Eur J Biochem 267, 5421-5426, 2000). The compounds are dissolved as 20 mM solutions in dimethylsulfoxide (DMSO) and subsequently diluted in semi-logarithmic steps. DMSO dilutions are further diluted 1:100 into Dulbecco's modified Eagle's medium (DMEM) containing 10% fetal calf serum to a final concentration twice as much as the final concentration in the test. RKO subclones are seeded into 96 well flat bottom plates at a density of 4000 cells per well in a volume of 50 µl per well. 24 hours after seeding the 50 μl each of the compound dilutions in DMEM medium are added into each well of the 96 Well plate. Each compound dilution is tested as quadruplicates. Wells containing untreated control cells are filled with 50 μl DMEM medium containing 1% DMSO. The cells are then incubated with the substances for 72 hours at 37° C. in a humidified atmosphere containing 5% carbon dioxide. To determine the viability of the cells, 10 μl of an Alamar Blue solution (Biosource) are added and the fluorescence is measured at an extinction of 544 nm and an emission of 590 nm. For the calculation of the cell viability the emission value from untreated cells is set as 100% viability and the emission rates of treated cells are set in relation to the values of untreated cells. Viabilities are expressed as % values.
The corresponding IC50 values of the compounds for anti-proliferative/cytotoxic activity are determined from the concentration-effect curves.
Representative IC50 values for anti-proliferation/cytotoxicity determined for the compounds mentioned and numbered as Examples in the examples above follow from the following table A (1st column), in which the numbers of the compound correspond to the numbers of the examples. Any or all of the compounds according to the present invention which are listed in the Table A, as well as their salts, are to be mentioned as a particular interesting subject of the present invention.

Test [2] relates to RKO colon adenocarcinoma cells (RKOp27) arrested by expression of ectopic p27Kip1. Description: Alamar Blue cell viability assay, cell cycle specific mode of action, RKO p27 induced (arrested by Ponasterone A-induced p27Kip1). The format is cell-based. Conditions: Homo sapiens, RKOp27, 72 h, cells arrested by p27Kip1 induced with 10 μM Ponasterone A, 72 hours incubation. Here is the method:
To determine the cell cycle specific mode of action, subdlones of RKO colon adenocarcinoma cells (RKOp27 or RKOp21 as described by Schmidt et al. in Oncogene 19, 2423-2429; 2000) are seeded into 96 well flat bottom plates at a density of 16000 cells per well in a volume of 50 μl per well in DMEM growth medium with 10% FCS containing 10 μM Ponasterone A. 24 hours after seeding the 50 μl each of the compound dilutions in DMEM medium are added into each well of the 96 Well plate. Each compound dilution is tested as quadruplicates. Wells containing untreated control cells are filled with 50 μl DMEM medium containing 1% DMSO. The cells are then incubated with the substances for 72 hours at 37° C. in a humidified atmosphere containing 5% carbon dioxide. To determine the viability of the cells, 10 μl of an Alamar Blue solution (Biosource) are added and the fluorescence was measured at an extinction of 544 nm and an emission of 590 nm. For the calculation of the cell viability the emission value from untreated cells is set as 100% viability and the emission rates of treated cells are set in relation to the values of untreated cells. Viabilities are expressed as % values. Viability is compared of proliferating cells grown in the absence of the inducer Ponasterone A, versus viability of cells arrested by the expression of ectopic p27Kip1 induced by Ponasterone A. The data of this experimental setting are summarized in table A (2nd column).
Background: Alamar Blue is a resazurin reagent that responds to reducing activity.

The IC50 is the concentration that gives 50% inhibition.

On to `N#Cc1c(NC(=O)c2ccccc2)sc2c1CCN(C(=O)CCCc1c[nH]c3ccccc13)C2` [Compound 37, N-[3-Cyano-6-(4-1H-indol-3-yl-butanoyl)-4,5,6,7-tetrahydro-thieno[2,3-c]pyridin-2-yl]-benzamide], for which the IC50 is no more than 3 µM in test [1] and greater than 60 µM in test [2].
Regarding `COC(=O)CCCC(=O)N1CCc2c(sc(NC(=O)c3ccccc3)c2C#N)C1` [Compound 38, 5-{3-Cyano-2-[(1-phenyl-methanoyl)-amino]-4,7-dihydro-5H-thieno[2,3-c]pyridin-6-yl}-5-oxo-pentanoic acid methyl ester], the figures for the IC50 in test [1] and in test [2] were no more than 3 µM and greater than 60 µM, respectively.
For `N#Cc1c(NC(=O)c2ccccc2)sc2c1CCN(C(=O)CCNC(=N)N)C2` [Compound 39, N-[3-Cyano6-(3-guanidino-propanoyl)-4,5,6.7-tetrahydro-thieno[2,3-c]pyridin-2-yl]-benzamide], the IC50 in test [1] is no more than 3 µM; in test [2] it was greater than 60 µM.
The corresponding values for `COCCOCC(=O)N1CCc2c(sc(NC(=O)c3ccccc3)c2C#N)C1` [Compound 40] are no more than 3 µM and greater than 60 µM.
Consider `N#Cc1c(NC(=O)c2ccccc2)sc2c1CCN(C(=O)CCc1cccnc1)C2` [Compound 41, N-[3-Cyano-6-(3-pyridin-3-yl-propanoyl)-4,5,6,7-tetrahydro-thieno[2,3-c]pyridin-2-yl]-benzamide], for which the values for the IC50 in test [1] and in test [2] were no more than 3 µM and greater than 60 µM, respectively.
Taken in the same sequence, the figures for `N#Cc1c(NC(=O)c2ccccc2)sc2c1CCN(C(=O)Cc1ccccn1)C2` [Compound 42, N-[3-Cyano-6-(2-pyridin-2-yl-ethanoyl)-4,5,7-tetrahydro-thieno[2,3-c]pyridin-2-yl]-benzamide] were no more than 3 µM and greater than 60 µM.
Turning to `CCOC(=O)N1CCc2c(sc(NC(=O)c3ccc([N+](=O)[O-])cc3)c2C#N)C1` [Compound 44, 3-Cyano-2-{[1-(4-nitro-phenyl)-methanoyl]-amino}-4,7-dihydro-5H-thieno[2,3-c]pyridine-6-carboxylic acid ethyl ester], the IC50 in test [1] was no more than 3 µM; in test [2] it was greater than 60 µM.
As for `CCOC(=O)N1CCc2c(sc(NC(=O)c3cccc([N+](=O)[O-])c3)c2C#N)C1` [Compound 45, 3-Cyano-2{[1-(3-nitro-phenyl)-methanoyl]-amino}-4,7-dihydro-5H-thieno[2,3-c]pyridine-6-carboxylic acid ethyl ester], the IC50 in test [1] is no more than 3 µM; in test [2] it was greater than 60 µM.
For `CCOC(=O)N1CCc2c(sc(NC(=O)c3ccccc3[N+](=O)[O-])c2C#N)C1` [Compound 46, 3-Cyano-2-{[1-(2-nitro-phenyl)-methanoyl]-amino}-4,7-dihydro-5H-thieno[2,3-c]pyridine-6-carboxylic acid ethyl ester], the IC50 in test [1] is no more than 3 µM; in test [2], greater than 60 µM.
For `CCOC(=O)N1CCc2c(sc(NC(=O)c3ccc(Cl)cc3)c2C#N)C1` [Compound 47, 2-{[1-(4-Chloro-phenyl)-methanoyl]-amino}-3-cyano-4,7-dihydro-5H-thieno[2,3-c]pyridin-6-carboxylic acid ethyl ester], the IC50 in test [1] was no more than 3 µM; in test [2] it was greater than 60 µM.
Turning to `CCOC(=O)N1CCc2c(sc(NC(=O)c3cccc(Cl)c3)c2C#N)C1` [Compound 48, 2-{[1-(3-Chloro-phenyl)-methanoyl]-amino}-3-cyano-4,7-dihydro-5H-thieno[2,3-c]pyridine-6-carboxylic acid ethyl ester], the 50% inhibitory concentration (IC50) in test [1] is no more than 3 µM; in test [2], greater than 60 µM.
In the case of `CCOC(=O)N1CCc2c(sc(NC(=O)c3ccc(OC)cc3)c2C#N)C1` [Compound 49, 3-Cyano-2-{[1-(4-methoxy-phenyl)-methanoyl]-amino}-4,7-dihydro-5H-thieno[2,3-c]pyridine-6-carboxylic acid ethyl ester], the IC50 is no more than 3 µM in test [1] and greater than 60 µM in test [2].
Consider `CCOC(=O)N1CCc2c(sc(NC(=O)c3ccc(C)cc3)c2C#N)C1` [Compound 50, 3-Cyano-2-[(1-p-tolyl-methanoyl)-amino]-4,7-dihydro-5H-thieno[2,3-c]pyridine-6-carboxylic acid ethyl ester], for which the half-maximal inhibitory concentration (IC50) in test [1] was no more than 3 µM; in test [2], greater than 60 µM.
For the compound `CCOC(=O)N1CCc2c(sc(NC(=O)c3cccc(C)c3)c2C#N)C1` [Compound 51, 3-Cyano-2-[(1-m-tolyl-methanoyl)-amino]-4,7-dihydro-5H-thieno[2,3-c]pyridine-6-carboxylic acid ethyl ester], the results for the IC50 in test [1] and in test [2] were no more than 3 µM and greater than 60 µM, respectively.
Consider `CCOC(=O)N1CCc2c(sc(NC(=O)c3ccccc3C)c2C#N)C1` [Compound 52, 3-Cyano-2-[(1-o-tolyl-methanoyl)-amino]-4,7-dihydro-5H-thieno[2,3-c]pyridine-6-carboxylic acid ethyl ester], for which the values for the IC50 in test [1] and in test [2] were no more than 3 µM and greater than 60 µM, respectively.
Taken in the same sequence, the figures for `CCOC(=O)N1CCc2c(sc(NC(=O)c3cccc(O)c3)c2C#N)C1` [Compound 53, 3-Cyano-2-{[1-(3-hydroxy-phenyl)-methanoyl]-amino}-4,7-dihydro-5H-thieno[2,3-c]pyridine-6-carboxylic acid ethyl ester] were no more than 3 µM and greater than 60 µM.
Turning to `COC(=O)N1CCc2c(sc(NC(=O)c3ccccc3)c2C#N)C1` [Compound 54, 3-Cyano-2-[(1-phenyl-methanoyl)-amino]-4,7-dihydro-5H-thieno[2,3-c]pyridine-6-carboxylic acid methyl ester], the IC50 in test [1] was no more than 3 µM; in test [2] it was greater than 60 µM.
With `CC(C)COC(=O)N1CCc2c(sc(NC(=O)c3ccccc3)c2C#N)C1` [Compound 56, 3-Cyano-2-[(1-phenyl-methanoyl)-amino]-4,7-dihydro-5H-thieno[2,3-c]pyridine-6-carboxylic acid isobutyl ester], the IC50 in test [1] was no more than 3 µM; in test [2], greater than 60 µM.
Taken in the same sequence, the figures for `CCCCCCOC(=O)N1CCc2c(sc(NC(=O)c3ccccc3)c2C#N)C1` [Compound 57, 3-Cyano-2-[(1-phenyl-methanoyl)-amino]-4,7-dihydro-5H-thieno[2,3-c]pyridine-6-carboxylic acid hexyl ester] were no more than 3 µM and greater than 60 µM.
Taken in the same sequence, the figures for `CCCCOC(=O)N1CCc2c(sc(NC(=O)c3ccccc3)c2C#N)C1` [Compound 58, 3-Cyano-2-[(1-phenyl-methanoyl)-amino]-4,7-dihydro-5H-thieno[2,3-c]pyridine-6-carboxylic acid butyl ester] were no more than 3 µM and greater than 60 µM.
`N#Cc1c(NC(=O)c2ccccc2)sc2c1CCN(C(=O)Oc1ccccc1)C2` [Compound 59, 3-Cyano-2-[(1-phenyl-methanoyl)-amino]-4,7-dihydro-5H-thieno[2,3-c]pyridine-6-carboxylic acid phenyl ester]: the IC50 in test [1] was no more than 3 µM; in test [2], greater than 60 µM.
As to `COc1ccc(OC(=O)N2CCc3c(sc(NC(=O)c4ccccc4)c3C#N)C2)cc1` [Compound 60, 3-Cyano-2-[(1-phenyl-methanoyl)-amino]-4,7-dihydro-5H-thieno[2,3-c]pyridine-6-carboxylic acid 4-methoxy-phenyl ester], the values for the IC50 in test [1] and in test [2] were no more than 3 µM and greater than 60 µM, respectively.
